One series relates to ai-receptor. Particulars: compared with prazosin hydrochloride; cited from earlier work.
The test system of series [1] is rabbit prostate, urethra and vesical triangle (trigone of the bladder). Particulars: rabbit tissues; cited from earlier work.
Series [2] concerns human urethra and vesical triangle. Particulars: human tissues; cited from earlier work.
Series [3] is described as follows: Solubility of AB-250 in water, ethanol and aqueous alcohol. Type of series: physicochemical. The text has this: 1. Data on the solubility increasing effect of aqueous alcohol:
The solubility of AB-250 in water of pH 5-7 was 0.4% and that in ethanol was 0.03%.
It is, thus, evident that the use of aqueous ethanol results in a remarkable increase in the solubility of the active compound.

Values after ≈ are worked out from the molar mass of the structure shown. Like-named read-outs stand apart in the source and are kept apart here.

We go through two compounds from patent EP0416804B1, “External preparation containing amusulosin” (YAMANOUCHI PHARMACEUTICAL CO., LTD., priority 1989, dated 1991).

Turning to `CCOc1ccccc1OCCNC(C)Cc1ccc(OC)c(S(N)(=O)=O)c1` (stereo not drawn) [amusulosin, 5-[2-[[2-(o-Ethoxyphenoxy)-ethyl]amino]propyl]-2-methoxybenzenesulfonamide], the ai-receptor blocking activity entry in the series with ai-receptor was “higher than that of prazosin hydrochloride”. Moreover, the “contraction of the rabbit prostate, urethra and vesical triangle” value in series [1] is recorded as “reduces the contraction”. In addition, the “contraction of the human urethra and vesical triangle” value in series [2] is “reduces the contraction”.

Consider `CCOc1ccccc1OCCNC(C)Cc1ccc(OC)c(S(N)(=O)=O)c1` (stereo not drawn) [AB-250, 5-[2-[[2-(o-Ethoxyphenoxy)-ethyl]amino]propyl]-2-methoxybenzenesulfonamide], for which the solubility stood at 51 mg/mL (≈ 125 mM) in series [3] (50% ethanol, organic solvent or mixture, Michaelis buffer containing 50% of ethanol, pH 8, read-out: solubility in aqueous ethanol containing 50% of ethanol); 48 mg/mL (≈ 117 mM) in series [3] (60% ethanol, organic solvent or mixture, Michaelis buffer containing 60% of ethanol, pH 7, read-out: solubility in aqueous ethanol containing 60% of ethanol); 0.3 mg/mL (≈ 0.734 mM) in series [3] (ethanol, organic solvent or mixture, read-out: solubility in ethanol); 4 mg/mL (≈ 9.79 mM) in series [3] (water of pH 5-7, read-out: solubility in water). In addition, the “greater solubility in aqueous alcohol” value in series [3] (aqueous alcohol compared with water and pure alcohol) is reported as “no less than 10 fold”. For the same compound, the “solubility increasing effect with isopropyl alcohol in lieu of ethanol” value in series [3] (isopropyl alcohol used in lieu of ethanol) was “More or less the same effect”.

Broadly, the solubility is the dissolved amount per volume that the medium holds.
